Laboratory results taken from patent US20220218689A1, “T[…] COMPOSITIONS AND METHODS FOR USING THE SAME” (Saniona A/S, priority 2018, published 2022).

Columns and labels:
[1] = In vitro skin flux study (Franz cell transdermal flux test); assay type: in vitro ADME, human; conditions: free base; conclusion from the in vitro skin flux study
Excerpt: Human cadaver skin was used and epidermal layers (stratum corneum and epidermis) were separated from the full-thickness skin as skin membrane. Samples were die-cut with an arch punch to a final diameter of about 2.0 cm^2. The release liner was removed and the system was placed on top of the epidermis/stratum corneum with the drug adhesive layer facing the stratum corneum. Gentle pressure was applied to effect good contact between the adhesive layer and stratum corneum. The donor and receptor sides of the Franz cell were clamped together and the receptor solution containing a phosphate buffer at pH 6.5 was added to the Franz cell. The cells were kept at 33° C. for the duration of the experiment. Samples of the receptor solution were taken at regular intervals and the active agent concentration was measured by HPLC. The removed receptor solution was replaced with fresh solution to maintain the sink conditions. The flux was calculated from the slope of cumulative amounts of the drug in the receiver compartment versus time plot.
Transdermal delivery devices containing various formulations of (1 R,2 R,3 S,5 S)-3-(3,4-dichlorophenyl)-2-(methoxymethyl)-8-azabicyclo[3.2.1]octane (i.e., NS2359) are summarized in Table 1. An in vitro skin flux study was performed as described above with transdermal delivery devices having the formulations listed in Table 1. […]

[2] = Astrup et al., 2008, Lancet 372: 1906-13; cited from earlier work

Compound | Transdermal deliverability [1] | Sagittal diameter [2] | Waist circumference [2]
COC[C@@H]1[C@@H](c2ccc(Cl)c(Cl)c2)C[C@@H]2CC[C@H]1N2 [NS2359, (1 R,2 R,3 S,5 S)-3-(3,4-dichlorophenyl)-2-(methoxymethyl)-8-azabicyclo[3.2.1]octane] | can be delivered transdermally | – | –
CCOC[C@@H]1[C@@H](c2ccc(Cl)c(Cl)c2)C[C@@H]2CC[C@H]1N2C [Tesofensine, (1 R,2 R,3 S,5 S)-3-(3,4-dichlorophenyl)-2-(ethoxymethyl)-8-methyl-8-azabicyclo[3.2.1]octane] | – | significantly decreases | significantly decreases
